Reference: patent US12049474B2, “Nucleoside prodrugs and uses related thereto” (Emory University, priority 2019, dated 2024)
Counter-ions that a name gives are not always drawn. Like-named read-outs stand apart in the source and are kept apart here.

Key:
HIV = experiment: microbe, parasite or virus in culture; type: cell-based; settings: italicized results: absence of human serum albumin
CYP2D6 = CYP2D6 (Homo sapiens (Human), UniProt P10635); experiment: biochemical; type: biochemical; settings: human recombinant CYP2D6, AMMC substrate; read-out: CYP450 IC50 2D6
Sequence of CYP2D6 (P10635 whole entry, canonical isoform): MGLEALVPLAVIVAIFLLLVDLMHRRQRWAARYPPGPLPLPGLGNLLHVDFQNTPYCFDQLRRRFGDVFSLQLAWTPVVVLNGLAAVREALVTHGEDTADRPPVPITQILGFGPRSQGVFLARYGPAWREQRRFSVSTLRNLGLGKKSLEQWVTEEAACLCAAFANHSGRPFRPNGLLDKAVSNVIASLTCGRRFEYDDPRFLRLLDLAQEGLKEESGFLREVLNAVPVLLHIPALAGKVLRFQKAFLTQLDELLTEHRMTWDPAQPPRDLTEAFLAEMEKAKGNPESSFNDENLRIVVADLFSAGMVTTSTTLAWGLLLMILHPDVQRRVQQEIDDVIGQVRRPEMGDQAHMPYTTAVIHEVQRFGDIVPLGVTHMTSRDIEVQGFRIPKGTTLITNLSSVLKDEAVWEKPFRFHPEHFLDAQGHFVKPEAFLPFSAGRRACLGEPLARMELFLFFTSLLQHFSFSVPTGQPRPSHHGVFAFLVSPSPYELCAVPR
Description: (§1) The CYP450 inhibition assays utilized microsomes from insect cells expressing human recombinant individual cDNA-expressed CYP isoforms 3A4 and 2D6, as well as the fluorogenic probe that produces fluorescent metabolite. Standard inhibitors were co-incubated with fluorogenic substrates and their inhibitory potential (IC50) was determined. Assay conditions in terms of CYP450 protein concentration and time of incubation were standardized, enzyme kinetics parameters of each fluorescent probe substrate were estimated and IC50 values of inhibitors were determined and validated on different days to check reproducibility.
(§2) A 100 mM sodium phosphate buffer was prepared and adjusted to pH 7.4. In a separate falcon tube, a 2× enzyme/substrate (E/S) solution was prepared in phosphate buffer. The final concentration of CYP2D6 (CORNING®) and […] (AMMC) was 10 nM and 4 μM, and CYP3A4 (CORNING®) and 7-benzyloxy-4-(trifluoromethyl) coumarin (BFC) was 20 nM and 40 μM, respectively. In a separate falcon tube, a 2×NADPH regenerating system (NRS) was prepared in phosphate buffer. The final concentration for each component in the assay was as follows: • CYP2D6 assay: 0.008 mM NADPH, 3.3 mM glucose 6-phosphate, 0.4 U of glucose-6-phosphate dehydrogenase per mL
(§3) Both enzymatic assays were conducted in a 96-well microtiter plate (Black, CORNING® COSTAR®) with a final volume of 100 μL. Preparation of the plate began with the addition of 74 μL of the E/S in the first well, and 50 μL to all subsequent wells (from 2-11). The test compounds (1 μL) were dissolved in the first well to give the first row a final volume of 75 μL. A 1:3 serial dilution of the test compound was conducted by removing 25 μL from the first well and diluting it with the second and so forth until the tenth row. Final concentrations yielded a range from 200 μM-0.01 μM. Well no. 11 contained no inhibitor, and well no. 12 contained no enzyme. Both were used as controls for background fluorescence. The plate was incubated for 30 min at 37° C. After incubation, the reaction was initiated by the addition of 50 μL of the 2×NRS to each well.
Immediately (within 1 min) the fluorescence was measured using a microplate reader (BIOTEK® Synergy Neo2). CYP2D6 was monitored at Ex/Em=410/460 nm, and CYP3A4 monitored at Ex/Em=410/538 nm in kinetic mode that scanned every 5 min for 60 mins. Data was exported and analyzed using Graph Pad Prism 7. […] The IC50 value was derived after the data was fitted on a 10-point curve using a four-parameter logistic regression model.

CYP3A4 = CYP3A4 (Homo sapiens (Human), UniProt P08684); experiment: Fluorometric CYP450 enzyme inhibition assay, CYP3A4; type: biochemical; settings: human recombinant CYP3A4, BFC substrate; read-out: CYP450 IC50 3A4
Sequence of CYP3A4 (P08684 whole entry): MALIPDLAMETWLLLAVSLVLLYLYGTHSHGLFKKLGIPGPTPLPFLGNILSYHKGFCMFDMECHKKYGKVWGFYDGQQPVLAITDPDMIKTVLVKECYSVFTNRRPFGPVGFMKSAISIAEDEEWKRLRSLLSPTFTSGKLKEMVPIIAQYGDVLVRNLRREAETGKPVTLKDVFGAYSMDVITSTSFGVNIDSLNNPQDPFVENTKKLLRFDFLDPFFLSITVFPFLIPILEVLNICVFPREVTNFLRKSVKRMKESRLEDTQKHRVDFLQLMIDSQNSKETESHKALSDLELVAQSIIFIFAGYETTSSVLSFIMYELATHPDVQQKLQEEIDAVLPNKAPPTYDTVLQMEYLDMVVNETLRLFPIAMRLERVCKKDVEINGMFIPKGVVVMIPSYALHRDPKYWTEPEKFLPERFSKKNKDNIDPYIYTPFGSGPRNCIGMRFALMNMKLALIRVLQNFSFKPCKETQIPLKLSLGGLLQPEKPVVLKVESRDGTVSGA
Description: as §1, §2
as §3, with “The test compounds (1 μL) were dissolved in the first well to give the first row a final volume of 75 μL.” left out
Immediately (within 1 min) the fluorescence was measured using a microplate reader (BIOTEK® Synergy Neo2). […] Data was exported and analyzed using Graph Pad Prism 7. […] The IC50 value was derived after the data was fitted on a 10-point curve using a four-parameter logistic regression model.

[1] = Metabolic stability assay in human liver microsomes (HLM); type: in vitro ADME; settings: NADPH, sampled 0-120 min; for HLM t1/2: 3 μM test compound
Description: The LC-MS/MS analysis was performed using Agilent 1260 Infinity II HPLC, coupled with an Agilent G6460 triple quadrupole mass spectrometer (Agilent Technologies, USA). All the data were acquired employing Agilent 6460 Quantitative Analysis data processing software.
Reverse-phase HPLC separation for each compound was achieved either on an Agilent Porshell 120 EC-C8 column (2.1×50 mm, 2.7 μm), or on an Agilent Zorbax XDB C18 column (2.1×50 mm, 3.5 μm) with a mobile phase composed of methanol-water-formic acid or acetonitrile-water-formic acid (0.1%) at a flow rate of 0.5 mL/min (changes for some compounds). Each method was developed in the presence of an internal standard (ISTD) d5-7-ethoxy coumarin. The column temperature was maintained at 40° C. for most of the samples otherwise noted. The detection was operated in the Agilent JetStream electrospray positive ionization using multiple reaction monitoring mode (MRM).
Other MS conditions were as follows: dwell time 100 ms; gas flow 10 L/min; nebulizer pressure 45 psi; delta EMV 200 V; fragmentor voltage and collision energy for individual compounds vary.
Test compounds were dissolved in 100% DMSO or 100% MeOH to make 10 mM stock solutions. Verapamil (Sigma Aldrich) aided as a positive control and was dissolved in 100% DMSO to make 10 mM stock solutions. The 10 mM stock solution of test and control compounds were further diluted in potassium phosphate buffer (100 mM, pH 7.4) to 500 μM to ensure the organic solvent content was <0.2%. Human liver microsomes (HLMs) were purchased from Xenotech at 20 mg/mL. NADPH (Sigma Aldrich) 10 mM stocks were prepared in deionized water.
The HLM assay was prepared in a 1.5 mL Eppendorf tube with a final volume of 1100 μL for duplicate runs. Each reaction contained phosphate buffer (928.4 μL), liver microsomes (55 μL), and test compound resulting in a final concentration of 3 μM (6.6 μL of 500 μM). The reaction was initiated with 110 μL of 10 mM NADPH. Aliquots (100 μL) were removed in duplicate at 0, 15, 30, 60, 120 min (for prodrug compounds) and 0, 5, 10, 15, 30 min (verapamil, positive control compound) time intervals and quenched in cold […] of 100% methanol which contained internal standard (ISTD: d5-7-ethoxy coumarin 4 μM). Before centrifugation each of the aliquoted tubes were vortexed to make sure compounds were in the solution. The aliquots were centrifuged at 12,000 g for 5 min and the supernatant removed and placed in an LC-MS vial. Each time point was assessed using LC-MS and the area, based on the extracted ion, was integrated with respect to the ISTD. Positive controls were conducted at a final volume of 550 μL to give each time point in a single run. A no-NADPH negative control with test or control compound was performed in a single run (150 μL) at the longest time point. Controls were processed and analyzed like the test compounds. Each time point was run in duplicates followed by in-between blank washes to avoid the carryover and to equilibrate the column.

[2] = dogs, cited from earlier work
HEK293 cells = settings: 50% cytotoxic concentration; italicized results: absence of human serum albumin

Compound | IC50 (HIV; Human immunodeficiency virus 1, HEK293, read-out: HIV IC50, pseudoviral particles, HEK293 cells) [µM] | IC50 (HIV; read-out: HIV IC50, pseudoviral particles, HEK293 cells) [µM] | IC50 (CYP2D6) [µM] | IC50 (CYP3A4) [µM] | half-life at 3 µM ([1]; pH 7.4, 3 μM test compound, read-out: HLM t1/2) [min] | fraction of dose converted to plasma TFV ([2]; single oral dose) [%] | fraction of dose sequestered for toxic side effects ([2]; single oral dose) [%] | fraction of dose that achieved access to plasma unscathed ([2]; single oral dose) [%] | fraction of a single oral dose extracted by the liver [2] [%] | HLM t1/2 [1] [min] | melting point | CC50 (HEK293 cells) [µM]
CC(C)OC(=O)[C@H](C)N[P@](=O)(CO[C@H](C)Cn1cnc2c(N)ncnc21)Oc1ccccc1 [TAF, tenofovir alafenamide fumarate] | 0.002 | 0.001 | > 50 | 21 | 26 | 17 | 82 | 18 | 65 | – | – | –
CCCCCCCCCCCCCCCCCCOP(=O)(O)CO[C@H](C)Cn1cnc2c(N)ncnc21.N [MD-1-105, Ammonium Octadecyl (R)-(((1-(6-amino-9H-purin-9-yl)propan-2-yl)oxy)methyl)phosphonate] | – | – | 20 | 52.9 | – | – | – | – | – | 13 | 154 to 184 °C (dec.) | 84.1
CCCCCCCCCCCCCCCOP(=O)(O)CO[C@H](C)Cn1cnc2c(N)ncnc21.N [MD-1-106, Ammonium Pentadecyl (R)-(((1-(6-amino-9H-purin-9-yl)propan-2-yl)oxy)methyl)phosphonate] | – | – | 22 | 54.9 | – | – | – | – | – | 13 | 162 to 190 °C (dec.) | > 100
